Experiment [1] deals with CARP-1, cyclin B1, Cdc20, Cdh1, APC-2, CDKIs, caspases, p38, Bcl2 family proteins. As to the kind of experiment: Western blot of protein levels in treated cells. In kind it is cell-based. The following applies: for effect of pre-treatment on CFM-4-dependent loss of cyclin B1 and Cdc20 proteins (WB): pre-treatment before CFM-4. The protocol:
(§1) Logarithmically growing cells were either untreated or treated with different agents for various time periods. The cells were lysed to prepare protein extracts. IP was carried out by incubating approximately 1 mg of the protein lysate with appropriate antibodies, and the immunoprecipitates or cell lysates were then electrophoresed on 9-12% SDS-polyacrylamide gels, and transferred to nitrocellulose membranes. The membranes were subsequently probed with various antibodies to determine expression/presence of the corresponding proteins. The cell growth inhibition was assessed by using MTT assay. Briefly, MTT (3-[4,5-Dimethylthiazol-2-yl]-2,5diphenyltetrazolium bromide) was dissolved in sterile 1×PBS to prepare a stock solution of 5 mg/ml. The solution was subsequently filtered through 0.2 μm filter and stored at 2-8° C. 4−5×10^2 cells were seeded in 96-well plates. After 72 h incubation with or without different agents, MTT stock solution was added to each culture being assayed to equal one tenth the original culture volume, followed by incubation of cells at 37° C. for another 2 h. At the end of the incubation, the media was removed and cells were treated with 100-200 μl of DMSO to solubilize the dye. The assessment of the live cells was derived by measuring the absorbance of the converted dye at wavelength of 570 nm.

For experiment [2], the target named is T1, CARP-1 binding with APC-2 (Homo sapiens, UniProt Q8IX12).
T1 construct: made in house; host or cells: E. coli BL-21 (DE3)
T1 sequence (Q8IX12 951-980 limits assumed): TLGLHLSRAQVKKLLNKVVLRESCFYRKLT
Kind of experiment: Fluorescence polarization assay (FPA) for inhibitors of CARP-1-APC-2 binding. Particulars: fluorescein-tagged A-epitope peptide and Gst-APC-2 (685-754). The protocol: Although, several formats for FP are indicated in the published literature (Inglese, J., Johnson, R. L., Simeonov, A., Xia, M., Zheng, W., Austin, C. P., Auld, D. S. (2007) Nat. Chem. Biol. 3(8), 466-79), the assays using 96-well or higher density plates are often and routinely employed. Optimization of FP for HTS involves several steps including the determination of Kd values, optimization of the buffer conditions, incubation and measurement times, and determination of the DMSO tolerance of the assay. Our goal was to minimize variation and to aim for adequate signal:background without adversely effecting the sensitivity of the assay. The FP polarization values in milli-polarization (mp) were measured to determine changes in the mp (Amp=mp of bound peptide mp of free peptide), the Kd and Ki constants of the binding. A 30-mer CARP-1 peptide that contained APC-2-binding epitope (A-epitope peptide) was commercially synthesized (US Biologicals, MA), labeled with fluorescein at the N-terminus, and purified to >98% purity. Increasing concentrations of A-epitope peptide were incubated with the indicated quantities of the affinity-purified Gst-APC-2 (685-754) protein in assay buffer containing 0.01% triton-X100. Affinity-purified Gst-NEMO (221-317) was included as a negative control. The Δmp was measured by excitation at 485 nm and emission at 538 nm.
The kinetics of CARP-1 binding with APC-2 was determined, and whether this binding could be exploited to identify SMIs of CARP-1-APC-2 interaction was investigated. For this purpose, a FPA utilizing the affinity-purified Gst-APC-2 (685-754) protein and the fluorescein-tagged A-epitope peptide was developed as detailed in methods. […] The signal to background ratio of 6 underscored robustness of this assay. Since, the quality (precision) and suitability of the FPA for HTS is usually defined by the Z′ factor (25, 40), we utilized the positive and negative control mean signals (μc+ and μc−, respectively) and their standard deviations (σc+ and σc−) to calculate the Z′ factor using the equation Z′=1−[3(σc++σc−)/(μc+−μc−)]. […]

The target of a further experiment is T2, Gst-APC-2 (685-754) (Homo sapiens, UniProt Q9UJX6).
T2 construct: immobilizing the Gst-APC-2 (685-754) peptide with Gst-beads; made in house; host or cells: E. coli BL-21 (DE3)
As to the kind of experiment: In vitro binding of SMIs, immobilized Gst-APC-2 pre-incubated with CFM. The following applies: WB with anti HA-tag. As to the method:
(§2) The CFM-4 and 5 were separately dissolved in DMSO to obtain a stock of 20-50 mM. For in vitro binding experiments we utilized affinity-purified Gst-APC-2 (685-754) and His-TAT-HA-tagged A-epitope (WT) peptide. Ten nanogram of the His-TAT-HA-tagged A-epitope (WT) peptide was first allowed to bind with Ni-NTA beads (ProBond, InVitrogen), and then the reaction was incubated with DMSO (control), 100 μM CFM-4, or 100 μM CFM-5 for 30 min at RT. The reactions were then subjected to three washes with the binding buffer, followed by incubation with 10 ng of affinity-purified Gst-APC-2 (685-754) peptide for 30 min at RT. The reactions were washed again for three times with PBS, eluted and analyzed on a SDS-PAGE followed by western blotting (WB) with anti-Gst antibodies. A similar strategy was performed by immobilizing the Gst-APC-2 (685-754) peptide with Gst-beads. The beads were washed, incubated with DMSO or the CFMs, and the reactions washed again. The reactions were then allowed to incubate with affinity purified A-epitope peptide, and the complexes analyzed by SDS-PAGE followed by WB with anti HA-tag antibodies.

Experiment [3] has as its target T3, His-TAT-HA-tagged A-epitope peptide [CARP-1 (951-980)] (Homo sapiens, UniProt Q8IX12).
T3 construct: wild-type or scrambled His-TAT-HA-CARP-1 (951-980) peptides; made in house; host or cells: E. coli BL-21 (DE3)
T3 sequence (Q8IX12 951-980 limits assumed): T1 sequence (Q8IX12 951-980 limits assumed)
As to the kind of experiment: In vitro binding of SMIs, immobilized A-epitope peptide pre-incubated with CFM. The following applies: 100 μM, 30 min at RT; WB with anti-Gst. As to the method: as §2

Experiment [4] relates to caspase-3, caspase-8, caspase-9, caspase-2. As to the kind of experiment: ApoAlert Caspase profiling plate, fluorescence-based. Format: cell-based. Particulars: pre-treatment before CFM-4. As to the method: For apoptosis ELISA assay, 4−5×10^2 cells were seeded in 96-well plates and treated essentially as indicated in the MTT assay above. Untreated as well as treated cells were lysed, and levels of mono and oligo-nucleosomal DNA fragments in the lysates were determined by measuring optical density of each sample at 405 nm and 495 nm wavelengths. […] For TUNEL labeling, the cells were treated with various agents, fixed, labeled and photographed essentially as detailed in immuno-localization protocols described before (Zhang, L., Levi, E., Majumder, P., Yu, Y., Aboukameel, A., Du, J., Xu, H., Mohammad, R. M., Hatfield, J. S., Wali, A., Adsay, V., Majumdar, A. P. N., and Rishi, A. K. (2007) Mol. Cancer. Ther. 6(5), 1661-1672). […] Cell lysates derived from vehicle DMSO (Control) or CFM-4-treated cells were added to the wells that had immobilized fluorogenic caspase-3, caspase-8, caspase-9, or caspase-2 substrates. The fluorescence released from the activated caspase-dependent cleavage of respective substrate was detected by a plate reader at the excitation and emission wavelengths of 380 nm and 460 nm, respectively.

Experiment [5] has as its system HBC, colon, prostate, pancreatic cancer, MPM and lymphoma cells. Kind of experiment: MTT cell viability assay, cancer cells. Particulars: combination with CFM-4. In kind it is cell-based, human. The protocol:
as §1
To test whether CFMs that interfere with CARP-1 binding with APC-2 modulate cell growth, HBC, colon, prostate, pancreatic cancer, MPM and lymphoma cells, as well as the immortalized, mammary epithelial MCF-10A cells were utilized. The cells were either treated with vehicle (DMSO) or various doses of the respective compound for a period of 72 h, and percent of live/viable cells for each compound was determined relative to the untreated controls as described in Methods.
On the technique in general: Formazan colour is commonly taken as a measure of viable cells.

Each structure is given as a SMILES string. Residues, ends and D or L forms follow the SMILES beside them. *: point of attachment. Cbz = O=C(OCc1ccccc1)*; CH2F = FC*

T2 sequence (Q9UJX6 685-754): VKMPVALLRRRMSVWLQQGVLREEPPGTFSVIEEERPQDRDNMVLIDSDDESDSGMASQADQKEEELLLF

For the compound `CC[C@H](C)[C@H](NC(=O)[C@H](CCC(=O)O)NC(=O)[C@@H](NC(C)=O)C(C)C)C(=O)N[C@H](C=O)CC(=O)O` [Ac-VEOD-CHO, reference compound] (Ac-VEID-aldehyde), in experiment [1], the “effect of pre-treatment on CFM-4-dependent loss of cyclin B1 and Cdc20 proteins (WB)” value was “blocked CFM-4-dependent loss”.

Usually IC50 stands for the concentration needed to halve the response being measured. Lower therefore signals greater potency in that assay. In experiment [2], `O=C1N(CCc2ccccc2)c2ccc(Br)cc2C12NN=C(c1ccccc1)S2` (stereo not shown) [CFM-5, 5-bromo-1-phenethyl-5′-phenyl-3′H-spiro[indoline-3,2′-[1,3,4]thiadiazol]-2-one] came in with a 50% inhibitory concentration (IC50) of 1400 nM. Moreover, on Gst-APC-2 (685-754), the “binding of immobilized Gst-APC-2 (685-754) with A-epitope peptide after pre-incubation with compound” value is “failed to abolish its binding”. Besides, in experiment [3], the “binding of immobilized A-epitope peptide with Gst-APC-2 (685-754) after pre-incubation with compound” value is recorded as “abrogated its binding”.

With `CC(C)C[C@H](NC(=O)[C@H](Cc1ccccc1)NC(=O)c1cnccn1)B(O)O` [velcade, Bortezomib, reference compound], the “CARP-1 levels (WB)” value in experiment [1] (50 nM velcade 6 h or 24 h, 20 μM CFM-4 24 h) is recorded as “modest increase in CARP-1 levels”. For the same compound, the “effect on CFM-4-dependent loss of cyclin B1 or Cdc20 proteins (WB)” value in experiment [1] (50 nM velcade combined with 20 μM CFM-4) was “failed to interfere”.

For `CC[C@H](C)[C@H](NC(=O)OCc1ccccc1)C(=O)N[C@@H](CCC(=O)OC)C(=O)N[C@H](C(=O)N[C@@H](CC(=O)OC)C(=O)CF)[C@@H](C)O` [z-IETD-fmk] (Cbz-IE(OMe)TD(OMe)-CH2F), the “effect of pre-treatment on CFM-4-dependent activation of caspase 8 or caspase 9” value in experiment [4] is reported as “abolished activation”.

On to `COC(=O)CC[C@H](NC(=O)[C@H](CC(C)C)NC(=O)OCc1ccccc1)C(=O)N[C@@H](Cc1cnc[nH]1)C(=O)N[C@@H](CC(=O)OC)C(=O)CF` [z-LEHD-fmk] (Cbz-LE(OMe)HD(OMe)-CH2F), for which the “effect of pre-treatment on CFM-4-dependent activation of caspase 8 or caspase 9” value in experiment [4] is “abolished activation”.

Take `COC(=O)C[C@H](NC(=O)[C@H](C)NC(=O)[C@@H](NC(=O)OCc1ccccc1)C(C)C)C(=O)CF` [zVAD-fMK, z-VAD-fmk, reference compound] (Cbz-Val-Ala-Asp(OMe)-CH2F): the “effect of pre-treatment on CFM-4-dependent loss of cyclin B1 and Cdc20 proteins (WB)” value in experiment [1] is reported as “blocked CFM-4-dependent loss”. In addition, in experiment [5], the “effect on cell growth suppression by CFM-4 (MTT)” value is listed as “blocked the ability of CFM-4 to suppress cell growth”.

The record behind these values is US9598441B2, “Therapeutic compounds and methods” (Wayne State University, priority 2011, dated 2017).
